Bridge positions count the residues as written; N and C are the ends. Ends that are not written are not given here.
System: Drosophila melanogaster
Assay: Injection activity assay in Drosophila melanogaster
Type: in vivo
Conditions: for flies dead / flies paralysed: n = 8; for number of flies dead / number of flies paralysed: of 8 flies
Method: The activity of the recombinant SA8 peptide in Drosophila melanogaster was assessed using an injection activity assay. The mass of female D. melanogaster used for this experiment ranged from 0.8 to 1.1 mg. Eight D. melanogaster were used as an injection control group and administered 50 nL of water. Five doses of SA8 (0.00005, 0.0005, 0.005, 0.05 and 0.5 µg per fly; 50 nL) were each administered to eight D. melanogaster (n total = 40), with observations of paralysis and mortality made at 2 and 24 h post-injection (Additional file 14: File S6). Dose–response data were analysed as described previously.

GYGKGRPGCYNHYDESICGGVIKDEHCKAGRGSRMGKFALKNCQFQCGLC (disulfide 9-47, 18-50, 27-43) [SA8]
0: number of flies dead (5e-5 µg/fly, 2 h) | number of flies paralysed (5e-5 µg/fly, 2 h) | number of flies dead (5e-5 µg/fly, 24 h) | number of flies paralysed (5e-5 µg/fly, 24 h) | number of flies dead (0.0005 µg/fly, 2 h) | number of flies paralysed (0.0005 µg/fly, 2 h) | number of flies dead (0.0005 µg/fly, 24 h) | number of flies paralysed (0.0005 µg/fly, 24 h) | number of flies dead (0.005 µg/fly, 2 h) | number of flies paralysed (0.005 µg/fly, 2 h) | number of flies dead (0.005 µg/fly, 24 h) | number of flies paralysed (0.005 µg/fly, 24 h) | number of flies dead (0.05 µg/fly, 2 h) | number of flies paralysed (0.05 µg/fly, 2 h) | number of flies dead (0.05 µg/fly, 24 h) | number of flies paralysed (0.05 µg/fly, 24 h) | number of flies dead (0.5 µg/fly, 2 h) | number of flies paralysed (0.5 µg/fly, 2 h) | number of flies dead (0.5 µg/fly, 24 h) | number of flies paralysed (0.5 µg/fly, 24 h)
0.0%: flies dead (5e-5 µg/fly, 2 h) | flies paralysed (5e-5 µg/fly, 2 h) | flies dead (5e-5 µg/fly, 24 h) | flies paralysed (5e-5 µg/fly, 24 h) | flies dead (0.0005 µg/fly, 2 h) | flies paralysed (0.0005 µg/fly, 2 h) | flies dead (0.0005 µg/fly, 24 h) | flies paralysed (0.0005 µg/fly, 24 h) | flies dead (0.005 µg/fly, 2 h) | flies paralysed (0.005 µg/fly, 2 h) | flies dead (0.005 µg/fly, 24 h) | flies paralysed (0.005 µg/fly, 24 h) | flies dead (0.05 µg/fly, 2 h) | flies paralysed (0.05 µg/fly, 2 h) | flies dead (0.05 µg/fly, 24 h) | flies paralysed (0.05 µg/fly, 24 h) | flies dead (0.5 µg/fly, 2 h) | flies paralysed (0.5 µg/fly, 2 h) | flies dead (0.5 µg/fly, 24 h) | flies paralysed (0.5 µg/fly, 24 h)
did not result in paralysis or death: paralysis or death within 24 h, in words (0.5 µg per fly, injected)

Reference: article PMC10210398, “Genomic, functional and structural analyses elucidate evolutionary innovation within the sea anemone 8 toxin family” (BMC Biology, 2023)
